Patent US7323474B2, “Pyridine derivatives inhibiting angiogenesis and/or VEGF receptor tyrosine kinase” (Novartis AG, priority 2000, dated 2008)

Experiments:
[1] = target: T1, KDR VEGF-receptor tyrosine kinase (Homo sapiens, UniProt P35968); assay: Test for activity against KDR VEGF-receptor tyrosine kinase; assay type: biochemical; details: KDR kinase domain; poly(Glu,Tyr) 4:1 8 μg/ml, 8 μM [33P]-ATP, 10 minutes at room temperature
T1 construct: instead of the Flt-1 kinase domain, the KDR kinase domain
T1 sequence (P35968 834-1162 limits assumed): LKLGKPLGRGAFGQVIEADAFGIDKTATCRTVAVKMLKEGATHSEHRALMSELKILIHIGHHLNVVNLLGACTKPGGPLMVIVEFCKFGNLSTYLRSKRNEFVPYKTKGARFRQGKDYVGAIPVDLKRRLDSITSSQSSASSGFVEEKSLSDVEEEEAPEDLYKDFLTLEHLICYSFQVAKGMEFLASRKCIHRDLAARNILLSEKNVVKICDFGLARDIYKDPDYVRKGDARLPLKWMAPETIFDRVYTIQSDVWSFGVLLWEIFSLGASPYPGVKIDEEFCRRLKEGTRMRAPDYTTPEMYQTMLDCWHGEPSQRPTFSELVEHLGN
Procedure: Test for activity against VEGF-receptor tyrosine kinase: the test is conducted using Flt-1 VEGF-receptor tyrosine kinase. The detailed procedure is as follows: 30 μl kinase solution (kinase domain of Flt-1, Shibuya et al., Oncogene 5, 519-24 [1990], according to the specific activity, in order to achieve an activity of 4000-6000 counts per minute [cpm] in the sample without inhibitor) in 20 mM Tris.HCl pH 7.5, 3 mM manganese dichloride (MnCl2), 3 mM magnesium chloride (MgCl2) and 3 μg/ml poly(Glu,Tyr) 4:1 (Sigma, Buchs, Switzerland), 8 μM [^33P]-ATP (0.2 μCi/batch), 1% dimethyl sulfoxide, and 0 to 50 μM of the compound to be tested are Incubated together for 10 minutes at room temperature. The reaction is then ended by the addition of 10 μl 0.25 M ethylenediaminetetraacetate (EDTA) pH 7. Using a multichannel dispenser (LAB SYSTEMS, USA), an aliquot of 20 μl is applied to a PVDF (=polyvinyl difluoride) Immobilon P membrane (Millipore, USA), which is incorporated into a Millipore microtitre filter manifold, and connected to a vacuum. Following complete elimination of the liquid, the membrane is washed 4 times successively in a bath containing 0.5% phosphoric acid (H3PO4), incubated for 10 minutes each time while shaking, then mounted in a Hewlett Packard TopCount Manifold and the radioactivity measured after the addition of 10 μl Microscint® (β-scintillation counter liquid; Packard USA). IC50-values are determined by linear regression analysis of the percentages for the inhibition of each compound in three concentrations (as a rule 0.01, 0.1, and 1 μM). Inhibition values (IC50 50% inhibition of activity compared with the control without an inhibitor of formula I) in the range of 5 nM to 1 μM, especially In the range of 5 nM to 500 nM are found.
Analogously to the above test, the efficacy of the compounds according to the invention as inhibitors of VEGF activity can be tested using the VEGF receptor tyrokinase KDR. In this test, instead of the Flt-1 kinase domain, the KDR kinase domain (Parast et al., Biochemistry 37 (47), 16788-801 (1998)) is used. The only difference in carrying out this test from the above test lies in the concentration of poly(Glu,Tyr) 4:1 (8 μg/ml), MnCl2 (1 mM) and MgCl2 (10 mM).
Test for activity against KDR VEGF-receptor tyrosine kinase The test is conducted using KDR VEGF-receptor tyrosine kinase, as described hereinabove. The IC50 values determined are given below, insofar as they have been accurately recorded: […]

[2] = target: T2, human VEGF receptor (KDR) (Homo sapiens, UniProt P35968); assay: Test for activity against VEGF-induced KDR phosphorylation (transfected CHO cells, sandwich ELISA); assay type: cell-based; details: 2 h compound, then VEGF 20 ng/ml for 5 min, % inhibition of VEGF-induced KDR phosphorylation, read-out: ED50 (the source's name)
T2 construct: expressed in transfected cells; host or cells: CHO cells (stably transfected)
T2 sequence (P35968 20-1356): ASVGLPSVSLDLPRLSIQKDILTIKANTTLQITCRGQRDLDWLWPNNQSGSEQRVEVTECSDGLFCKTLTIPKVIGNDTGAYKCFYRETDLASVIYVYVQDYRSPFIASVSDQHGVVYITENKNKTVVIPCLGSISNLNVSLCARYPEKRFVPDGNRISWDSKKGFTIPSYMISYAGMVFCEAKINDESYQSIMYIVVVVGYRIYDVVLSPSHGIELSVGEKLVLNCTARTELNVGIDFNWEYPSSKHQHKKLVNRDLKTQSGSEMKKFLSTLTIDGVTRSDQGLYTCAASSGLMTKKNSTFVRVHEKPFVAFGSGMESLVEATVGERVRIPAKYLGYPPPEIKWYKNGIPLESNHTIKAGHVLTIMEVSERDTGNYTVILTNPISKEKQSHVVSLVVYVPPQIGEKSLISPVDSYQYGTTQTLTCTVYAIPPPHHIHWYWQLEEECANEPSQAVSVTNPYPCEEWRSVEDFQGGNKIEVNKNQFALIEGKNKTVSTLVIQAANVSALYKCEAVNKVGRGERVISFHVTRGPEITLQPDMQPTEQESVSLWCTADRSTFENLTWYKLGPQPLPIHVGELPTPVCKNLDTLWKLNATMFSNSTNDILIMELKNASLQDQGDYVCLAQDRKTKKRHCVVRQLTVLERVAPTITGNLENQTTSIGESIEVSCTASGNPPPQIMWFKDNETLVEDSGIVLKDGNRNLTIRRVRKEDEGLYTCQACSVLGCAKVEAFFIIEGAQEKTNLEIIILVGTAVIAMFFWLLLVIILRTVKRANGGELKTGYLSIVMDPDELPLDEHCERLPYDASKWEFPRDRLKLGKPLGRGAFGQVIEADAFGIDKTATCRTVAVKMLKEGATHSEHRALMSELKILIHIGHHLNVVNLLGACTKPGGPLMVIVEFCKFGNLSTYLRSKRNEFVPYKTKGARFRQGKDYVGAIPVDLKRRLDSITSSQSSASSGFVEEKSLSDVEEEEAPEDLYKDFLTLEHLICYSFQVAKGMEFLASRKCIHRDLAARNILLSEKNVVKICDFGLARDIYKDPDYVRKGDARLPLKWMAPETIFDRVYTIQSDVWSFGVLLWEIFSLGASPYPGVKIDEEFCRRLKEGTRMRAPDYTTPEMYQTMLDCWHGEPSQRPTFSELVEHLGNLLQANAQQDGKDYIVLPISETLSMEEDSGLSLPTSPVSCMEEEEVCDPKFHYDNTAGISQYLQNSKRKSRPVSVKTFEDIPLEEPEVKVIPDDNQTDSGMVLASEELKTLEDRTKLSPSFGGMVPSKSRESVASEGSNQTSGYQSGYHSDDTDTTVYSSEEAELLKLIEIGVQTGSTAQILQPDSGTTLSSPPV
Procedure: Using a further cellular in vitro experiment, the inhibition of the VEGF-induced KDR autophosphorylation can be confirmed: Transfected CHO cells, which permanently express human VEGF receptor (KDR), are seeded in culture medium (with 10% fetal calf serum=FCS) in 6-well cell culture plates and incubated at 37° C., 5% CO2 until they are approximately 80% confluent. The compounds to be tested are then diluted in culture medium (without FCS, with 0.1% bovine serum albumin=BSA) and added to the cells. (Controls receive medium without test compounds). After incubation for two hours at 37° C., recombinant VEGF is added; the final VEGF concentration is 20 ng/ml. After incubating for a further five minutes at 37° C., the cells are washed twice with ice-cold PBS (phosphate-buffered physiological saline) and immediately lysed in 100 μl lysis buffer per well. The lysates are then centrifuged to remove the cell nuclei, and the protein concentrations of the supematants are determined by a commercial protein assay (BIORAD). The lysates can then be either further used immediately or stored at −20° C. if required. To determine the KDR phosphorylation, a “sandwich ELISA” is carried out. A monoclonal antibody to KDR (for example Mab 1495.12.14; prepared by H. Towbin) is immobilised on black ELISA plates (OptiPlate™ HTRF-96 by Packard). Subsequently, the plates are washed and any remaining free protein binding sites are neutralised with 1% BSA in PBS. The cell lysates (20 μg protein per well) are then incubated over night at 4° C. together with an anti-phosphotyrosin antibody, which is coupled with alkaline phosphatase (PY20:AP from Transduction Laboratories). […] Luminescence is measured in a Packard Top Count Microplate Scintillation Counter (Top Count). The difference between the signal from the positive control (stimulated with VEGF) and that from the negative control (not stimulated with VEGF) corresponds to the VEGF-induced KDR phosphorylation (=100%). The activity of the tested substances is calculated as % inhibition of the VEGF-induced KDR phosphorylation, whereby the concentration of a substance which effects semi-maximum inhibition is called ED50 (effective dose for 50% inhibition). […] Test for activity against VEGF-Induced KDR phosphorylation The cellular in vitro test is carried out using VEGF and KDR-transfected cells, as described above. The ED50 values determined are given below, insofar as they have been accurately recorded: […]

Structure (SMILES) | IC50 [1] | melting point | IC50 [2]
Nc1cc(Cl)cc(C(F)(F)F)c1 [Example 7, 5-amino-3-chloro-benzotrifluoride] | 0.185 µM |  | 
FC(F)(F)c1cc(Nc2ncc(CCc3cccnc3)c3ccccc23)cc(C(F)(F)F)c1 [Example 12] | 0.192 µM | 174 °C | 
Cc1ccc(CCc2cnc(N[C@H]3CC[C@H](C(C)C)CC3)c3ccccc23)cn1 [Example 19, trans 1-(4-isopropyl-cyclohexylamino)-4-[2-(6-methyl-pyridin-3-yl)-ethyl]-isoquinoline] | 0.127 µM |  | 
Cc1ccc(Nc2ncc(/C=C\c3cccnc3)c3ccccc23)cc1Br [Example 2, (Z) 1-(3-bromo-4-methylanilino)-4-[2-(pyridin-3-yl)-vinyl]-isoquinoline] | 0.049 µM |  | 
CCc1ccc(Nc2ncc(CCc3cccnc3)c3ccccc23)cc1Br [Example 9, 1-(3-bromo-4ethylanilino)-4-[2-(pyridin-3-yl)-ethyl]-isoquinoline] | 0.004 µM | 119 °C | 0.091 µM
CC(C)[C@H]1CC[C@H](Nc2ncc(Cc3ccc(O)nc3)c3ccccc23)CC1 [29 (E isomer), trans 1-(4-isopropyl-cyclohexylamino)-4-[(6-hydroxy-pyridin-3-yl)-methyl]-isoquinoline] | 0.087 µM |  | 
CC(C)(C)[C@H]1CC[C@H](Nc2ncc(CCc3cccnc3)c3ccccc23)CC1 [16 (E isomer), trans 1-(4-tert-butyl-cyclohexylamino)-4-[2-(pyridin-3-yl)-ethyl]-isoquinoline] | 0.196 µM | 124 to 125 °C | 
CC(C)(C)c1cccc(Nc2ncc(CCc3cccnc3)c3ccccc23)c1 [Example 10] | 0.033 µM | 133 to 134 °C | 
Cc1ccc(Nc2ncc(/C=C/c3cccnc3)c3ccccc23)cc1Br [Example 3, (E) 1-(3-bromo-4-methylanilino)-4-[2-(pyridin-3-yl)-vinyl]-isoquinoline] | 0.123 µM | 196 to 197 °C | 
CCc1ccc(Nc2ncc(CCc3ccc(C)nc3)c3ccccc23)cc1Br [Example 21] | 0.015 µM | 103 to 105 °C | 
CC(C)[C@H]1CC[C@H](Nc2ncc(Cc3ccc(O)nc3)c3ncccc23)CC1 [Example 39, trans 5-(4-isopropyl-cyclohexylamino)-8-[(6-hydroxy-pyridin-3-yl)-methyl]-[1,6]naphthyridine] |  | 232 to 235 °C | 
COc1ccc(Cc2cnc(Nc3ccc(C(C)(C)C)cc3)c3ccccc23)cn1 [Example 33e, 1-[4-(tert-butyl)-anilino]-4-[(6-methoxy-pyridin-3yl)-methyl]-isoquinoline] |  |  | 0.028 µM
Clc1ccc(Nc2ncc(CCc3cccnc3)c3ccccc23)cc1 [Example 1, 1-(4chloroanilino)-4-[2-(pyridin-3-yl)-ethyl]-isoquinoline] | 0.105 µM | 157 to 158 °C | 
Cc1cc(Nc2ncc(CCc3cccnc3)c3ccccc23)ccc1C(C)C [Example 8] | 0.027 µM | 133 to 134 °C | 0.011 µM
FC(F)(F)c1cc(Nc2ncc(CCc3cccnc3)c3ccccc23)ccc1Cl [Example 13] | 0.053 µM | 159 °C | 
CC(C)(C)c1ccc(Nc2ncc(CCc3cccnc3)c3ccccc23)cc1 [Example 5] | 0.025 µM | 81 °C | 0.01 µM
FC(F)(F)c1ccc(Nc2ncc(CCc3cccnc3)c3ccccc23)cc1C(F)(F)F [Example 11] | 0.041 µM | 124 to 125 °C | 
Cc1ccc(CCc2cnc(Nc3ccc(C(C)C)c(C)c3)c3ccccc23)cn1 [Example 20] | 0.048 µM |  | 

More lines, now with the values ahead:

IC50 [1] | melting point | IC50 [2] | Structure (SMILES)
0.092 µM |  |  | CCc1ccc(Nc2ncc(Cc3ccc(O)nc3)c3ncccc23)cc1Br [Example 37b, 5-(3-bromo-4-ethyl-anilino)-8-[(6-hydroxy-pyridin-3-yl)-methyl]-[1,6]naphthyridine]
 | 142 to 146 °C |  | CCc1ccc(Nc2ncc(Cc3ccc(OC)nc3)c3ncccc23)cc1Br [Example 37a, 5-(3-bromo-4-ethyl-anilino)-8-[(6-methoxy-pyridin-3-yl)-methyl]-[1,6]naphthyridine]
0.081 µM |  | 0.052 µM | COc1ccc(Cc2cnc(Nc3ccc(C(C)(C)C)cc3)c3cccnc23)cn1 [Example 40e, 5-[4-(tert-butyl)-anilino]-8-[(6-methoxy-pyridin-3-yl)-methyl]-[1,6]naphthyridine]
 | 137 °C |  | Cc1nc(Nc2cccc(C(F)(F)F)c2)c2ccccc2c1Cc1ccc(Cl)nc1 [Example 45a, 1-(3-trifluoromethyl-anilino)-4-[(6-chloro-pyridin-3-yl)-methyl]-3-methylisoquinoline]
 |  | 0.019 µM | CC(C)(C)c1ccc(Nc2ncc(Cc3ccc(O)nc3)c3ccccc23)cc1 [Example 34e, 1-[4-(tert-butyl)-anilino]4-[(6-hydroxy-pyridin-3-yl)-methyl]-isoquinoline]
0.137 µM |  | 0.029 µM | CCc1ccc(Nc2ncc(Cc3ccc(O)nc3)c3ccccc23)cc1Br [Example 34g, 1-(3-bromo-4-ethylanilino]-4-[(6-hydroxy-pyridin-3-yl)-methyl]-isoquinoline]
 |  | 0.022 µM | CC(C)(C)c1ccc(Nc2ncc(Cc3ccc(O)nc3)c3ncccc23)cc1 [Example 41e, 5-[4-(tert-butyl)-anilino]-8-[(6-hydroxy-pyridin-3-yl)-methyl]-[1,6]naphthyridine]
